What was measured:
Assay type in all cases: binding
[1] = target: SW480 colon carcinoma cells lysate proteins (Homo sapiens, UniProt Q06210); details: PreyGene GFPT1; SW480 cells
[2] = target: SW480 colon carcinoma cells lysate proteins (Homo sapiens, UniProt P28070); details: PreyGene PSMB4
[3] = target: SW480 colon carcinoma cells lysate proteins (Homo sapiens, UniProt Q01105); details: PreyGene SET
[4] = target: T1, SW480 colon carcinoma cells lysate proteins (Homo sapiens, UniProt P55145); details: PreyGene MANF
T1 sequence (P55145 25-182): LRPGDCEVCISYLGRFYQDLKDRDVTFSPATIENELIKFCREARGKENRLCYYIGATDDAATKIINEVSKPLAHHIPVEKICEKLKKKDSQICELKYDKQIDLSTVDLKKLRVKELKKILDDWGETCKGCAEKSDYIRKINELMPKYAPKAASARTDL

[5] = target: T2, SW480 colon carcinoma cells lysate proteins (Homo sapiens, UniProt Q13442); details: PreyGene PDAP1; SW480 cells
T2 sequence (Q13442 1-181): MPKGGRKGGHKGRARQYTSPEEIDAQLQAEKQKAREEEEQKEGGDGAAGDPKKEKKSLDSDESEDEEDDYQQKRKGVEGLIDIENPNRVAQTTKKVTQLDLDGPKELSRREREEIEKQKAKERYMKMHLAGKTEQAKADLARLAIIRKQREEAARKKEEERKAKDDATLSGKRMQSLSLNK

[6] = target: T3, SW480 colon carcinoma cells lysate proteins (Homo sapiens, UniProt Q01844); details: PreyGene EWSR1; SW480 cells
T3 sequence (Q01844 1-656): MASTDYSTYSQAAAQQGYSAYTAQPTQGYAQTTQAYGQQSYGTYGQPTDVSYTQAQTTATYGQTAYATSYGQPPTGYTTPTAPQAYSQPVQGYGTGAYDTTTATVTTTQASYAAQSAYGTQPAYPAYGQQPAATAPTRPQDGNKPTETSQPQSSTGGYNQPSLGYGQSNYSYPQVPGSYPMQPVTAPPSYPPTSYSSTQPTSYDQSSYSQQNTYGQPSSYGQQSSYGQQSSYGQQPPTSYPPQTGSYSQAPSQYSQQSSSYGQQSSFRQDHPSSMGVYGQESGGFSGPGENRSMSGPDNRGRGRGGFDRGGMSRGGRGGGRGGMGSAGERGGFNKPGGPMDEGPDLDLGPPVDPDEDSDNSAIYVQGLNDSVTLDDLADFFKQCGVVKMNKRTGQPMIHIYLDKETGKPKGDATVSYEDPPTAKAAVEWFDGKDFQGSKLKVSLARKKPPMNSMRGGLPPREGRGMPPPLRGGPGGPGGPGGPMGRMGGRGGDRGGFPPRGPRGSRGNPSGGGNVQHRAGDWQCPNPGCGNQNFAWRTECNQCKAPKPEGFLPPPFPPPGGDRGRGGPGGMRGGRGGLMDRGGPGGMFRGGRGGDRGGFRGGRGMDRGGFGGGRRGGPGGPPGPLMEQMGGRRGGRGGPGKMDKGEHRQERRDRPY

[7] = target: T4, SW480 colon carcinoma cells lysate proteins (Homo sapiens, UniProt P50454); details: PreyGene SERPINH1
T4 sequence (P50454 19-418): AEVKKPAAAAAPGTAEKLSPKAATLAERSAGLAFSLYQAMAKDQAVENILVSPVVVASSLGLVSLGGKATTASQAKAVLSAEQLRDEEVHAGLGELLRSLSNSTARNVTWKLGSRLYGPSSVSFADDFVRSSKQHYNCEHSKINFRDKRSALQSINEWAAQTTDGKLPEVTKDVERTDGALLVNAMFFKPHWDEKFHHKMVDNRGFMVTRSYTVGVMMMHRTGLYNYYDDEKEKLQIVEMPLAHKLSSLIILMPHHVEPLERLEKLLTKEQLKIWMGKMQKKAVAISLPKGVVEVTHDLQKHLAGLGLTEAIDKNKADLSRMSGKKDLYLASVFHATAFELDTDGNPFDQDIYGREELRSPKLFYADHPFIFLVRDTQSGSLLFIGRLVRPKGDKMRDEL

Sequence of SW480 colon carcinoma cells lysate proteins (Homo sapiens, UniProt P28070) (P28070 46-264): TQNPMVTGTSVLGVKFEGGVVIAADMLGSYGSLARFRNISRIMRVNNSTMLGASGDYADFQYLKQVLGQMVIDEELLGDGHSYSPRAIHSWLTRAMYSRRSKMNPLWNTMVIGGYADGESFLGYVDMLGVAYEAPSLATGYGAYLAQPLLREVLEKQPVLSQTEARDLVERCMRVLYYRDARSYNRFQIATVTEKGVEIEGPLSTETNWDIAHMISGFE
Sequence of SW480 colon carcinoma cells lysate proteins (Homo sapiens, UniProt Q06210) (Q06210 whole entry): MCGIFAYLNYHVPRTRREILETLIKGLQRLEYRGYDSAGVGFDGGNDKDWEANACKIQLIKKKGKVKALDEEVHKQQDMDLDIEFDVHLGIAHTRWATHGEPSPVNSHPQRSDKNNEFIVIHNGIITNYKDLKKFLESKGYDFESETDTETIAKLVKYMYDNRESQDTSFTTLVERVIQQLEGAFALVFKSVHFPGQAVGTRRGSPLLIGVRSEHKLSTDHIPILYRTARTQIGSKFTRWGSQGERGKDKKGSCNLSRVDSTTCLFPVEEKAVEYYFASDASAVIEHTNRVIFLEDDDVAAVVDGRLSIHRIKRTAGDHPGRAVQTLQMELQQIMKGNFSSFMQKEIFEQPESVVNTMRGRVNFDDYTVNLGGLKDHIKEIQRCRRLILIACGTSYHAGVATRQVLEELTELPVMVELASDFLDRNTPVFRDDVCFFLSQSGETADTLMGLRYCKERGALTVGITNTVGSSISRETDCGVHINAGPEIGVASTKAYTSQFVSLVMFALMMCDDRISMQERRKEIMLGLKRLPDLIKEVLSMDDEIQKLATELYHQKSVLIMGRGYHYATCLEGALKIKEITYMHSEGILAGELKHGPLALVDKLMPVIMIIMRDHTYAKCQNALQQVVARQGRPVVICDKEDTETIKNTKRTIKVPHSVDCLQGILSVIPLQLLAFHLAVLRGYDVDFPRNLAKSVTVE
Sequence of SW480 colon carcinoma cells lysate proteins (Homo sapiens, UniProt Q01105) (Q01105 whole entry): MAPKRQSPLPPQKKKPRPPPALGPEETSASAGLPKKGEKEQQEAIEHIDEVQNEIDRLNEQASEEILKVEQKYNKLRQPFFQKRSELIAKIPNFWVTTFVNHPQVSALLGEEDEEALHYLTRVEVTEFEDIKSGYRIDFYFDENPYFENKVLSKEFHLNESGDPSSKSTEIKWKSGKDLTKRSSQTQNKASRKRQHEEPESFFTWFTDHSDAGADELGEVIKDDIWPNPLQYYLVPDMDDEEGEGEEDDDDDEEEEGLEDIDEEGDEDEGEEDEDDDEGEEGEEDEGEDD

C[C@H](Oc1cc(-c2cnn(C3CCNCC3)c2)cnc1N)c1c(Cl)ccc(F)c1Cl [(5)-crizotinib]
AvgP [1]: 0
SC.Exp. 1-1 [1]: 1
SC.Exp. 1-2 [1]: 1
SC.Exp. 2-1 [1]: 0
SC.Exp. 2-2 [1]: 0
SC.Exp. Sum [1]: 2
AvgP [2]: 0.1875
SC.Exp. 1-1 [2]: 2
SC.Exp. 1-2 [2]: 0
SC.Exp. 2-1 [2]: 0
SC.Exp. 2-2 [2]: 0
Sum (SC.Exp.) [2]: 2
AvgP [3]: 0.4696
SC.Exp. 1-1 [3]: 3
SC.Exp. 1-2 [3]: 3
SC.Exp. 2-1 [3]: 4
SC.Exp. 2-2 [3]: 3
Sum (SC.Exp.) [3]: 13
AvgP [4]: 0.3221
SC.Exp. 1-1 [4]: 2
SC.Exp. 1-2 [4]: 1
SC.Exp. 2-1 [4]: 0
SC.Exp. 2-2 [4]: 0
Sum (SC.Exp.) [4]: 3
AvgP [5]: 0
SC.Exp. 1-1 [5]: 1
SC.Exp. 1-2 [5]: 1
SC.Exp. 2-1 [5]: 0
SC.Exp. 2-2 [5]: 0
SC.Exp. Sum [5]: 2
AvgP [6]: 0
SC.Exp. 1-1 [6]: 0
SC.Exp. 1-2 [6]: 1
SC.Exp. 2-1 [6]: 0
SC.Exp. 2-2 [6]: 0
SC.Exp. Sum [6]: 1
AvgP [7]: 0.3843
SC.Exp. 1-1 [7]: 5
SC.Exp. 1-2 [7]: 6
SC.Exp. 2-1 [7]: 0
SC.Exp. 2-2 [7]: 0
Sum (SC.Exp.) [7]: 11

From US9446039B2, “Aminoheteroaryl compounds as MTH1 inhibitors” (CEMM—FORSCHUNGSZENTRUM FÜR MOLEKULARE MEDIZIN GMBH, priority 2012, dated 2016)
